Test results as given in PubChem BioAssay (NCI).
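Protocol summary: plate cells (96-well), add compound at 5 concentrations, incubate 48 h, interpolate endpoints linearly. Here, GI50 denotes the concentration required for 50% inhibition of growth. TGI denotes the concentration required for complete inhibition of growth.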

What was measured:
Assay in all cases: DTP human tumour cell line panel, 48 h; in the data active = GI50 below about 0.43 µM; inactive = the rest
[1] = tested on: NCI/ADR-RES ovarian
[2] = tested on: UO-31 renal
[3] = tested on: ACHN renal
[4] = tested on: IGROV1 ovarian
[5] = tested on: PC-3 prostate
[6] = tested on: HT29 colon
[7] = tested on: 786-0 renal
[8] = tested on: HS 578T breast
[9] = tested on: SF-539 CNS
[10] = tested on: COLO 205 colon
[11] = tested on: HOP-62 NSCLC
[12] = tested on: SF-268 CNS
[13] = tested on: EKVX NSCLC
[14] = tested on: BT-549 breast
[15] = tested on: CAKI-1 renal
[16] = tested on: SNB-75 CNS
[17] = tested on: OVCAR-4 ovarian
[18] = tested on: SK-MEL-5 melanoma
[19] = tested on: HL-60(TB) leukemia
[20] = tested on: TK-10 renal
[21] = tested on: UACC-62 melanoma
[22] = tested on: A498 renal
[23] = tested on: KM12 colon
[24] = tested on: MCF7 breast
[25] = tested on: LOX IMVI melanoma
[26] = tested on: MALME-3M melanoma
[27] = tested on: NCI-H460 lung
[28] = tested on: SF-295 CNS
[29] = tested on: RPMI-8226 leukemia
[30] = tested on: MDA-MB-231 breast
[31] = tested on: K-562 leukemia
[32] = tested on: SNB-19 CNS
[33] = tested on: DU-145 prostate
[34] = tested on: M14 melanoma
[35] = tested on: HCT-116 colon
[36] = tested on: A549 NSCLC
[37] = tested on: SK-MEL-28 melanoma
[38] = tested on: SK-OV-3 ovarian
[39] = tested on: SK-MEL-2 melanoma
[40] = tested on: OVCAR-3 ovarian
[41] = tested on: T-47D breast
[42] = tested on: OVCAR-8 ovarian
[43] = tested on: HCT-15 colon
[44] = tested on: SN12C renal
[45] = tested on: OVCAR-5 ovarian
[46] = tested on: MDA-MB-435
[47] = tested on: NCI-H522 lung
[48] = tested on: HCC-2998 colon
[49] = tested on: MOLT-4 leukemia
[50] = tested on: RXF 393 renal
[51] = tested on: U251 CNS
[52] = tested on: SW-620 colon
[53] = tested on: UACC-257 melanoma
[54] = tested on: HOP-92 NSCLC
[55] = tested on: CCRF-CEM leukemia
[56] = tested on: NCI-H226 lung
[57] = tested on: NCI-H23 lung

COc1ccccc1C1=C(Nc2ccccc2)C(=O)NC1=O
inactive: GI50 [1] > 25 µM | GI50 [2] > 25 µM | GI50 [3] > 25 µM | GI50 [4] > 25 µM | GI50 [5] > 25 µM | GI50 [6] > 25 µM | GI50 [7] > 25 µM | GI50 [8] 6.25 µM | GI50 [9] > 25 µM | GI50 [10] > 18.9 µM | GI50 [11] > 25 µM | GI50 [12] > 25 µM | GI50 [13] > 25 µM | GI50 [14] > 25 µM | GI50 [15] > 25 µM | GI50 [16] > 18.1 µM | GI50 [17] > 25 µM | GI50 [18] > 25 µM | GI50 [19] > 25 µM | GI50 [20] > 25 µM | GI50 [21] > 25 µM | GI50 [22] > 25 µM | GI50 [23] > 23.8 µM | GI50 [24] > 25 µM | GI50 [25] > 25 µM | GI50 [26] > 25 µM | GI50 [27] > 25 µM | GI50 [28] > 25 µM | GI50 [29] > 25 µM | GI50 [30] > 25 µM | GI50 [31] > 25 µM | GI50 [32] > 25 µM | GI50 [33] > 25 µM | GI50 [34] > 25 µM | GI50 [35] 24.5 µM | GI50 [36] > 25 µM | GI50 [37] > 25 µM | GI50 [38] > 25 µM | GI50 [39] > 25 µM | GI50 [40] > 25 µM | GI50 [41] > 25 µM | GI50 [42] > 25 µM | GI50 [43] > 25 µM | GI50 [44] > 25 µM | GI50 [45] > 25 µM | GI50 [46] > 25 µM | GI50 [47] > 25 µM | GI50 [48] > 25 µM | GI50 [49] > 25 µM | GI50 [50] 7.87 µM | GI50 [51] > 25 µM | GI50 [52] > 25 µM
> 25 µM: TGI [1] | TGI [2] | TGI [3] | TGI [4] | TGI [5] | TGI [6] | TGI [7] | TGI [8] | TGI [9] | TGI [10] | TGI [11] | TGI [12] | TGI [13] | TGI [14] | TGI [15] | TGI [16] | TGI [17] | TGI [18] | TGI [19] | TGI [20] | TGI [21] | TGI [22] | TGI [23] | TGI [24] | TGI [25] | TGI [26] | TGI [27] | TGI [28] | TGI [29] | TGI [30] | TGI [31] | TGI [32] | TGI [33] | TGI [34] | TGI [35] | TGI [36] | TGI [37] | TGI [38] | TGI [39] | TGI [40] | TGI [41] | TGI [42] | TGI [43] | TGI [44] | TGI [45] | TGI [46] | TGI [47] | TGI [48] | TGI [49] | TGI [50] | TGI [51] | TGI [52]

COC(=O)[C@H]1NC(=O)CCSSC1(C)C
> 100 µM: TGI [1] | TGI [53] | TGI [2] | TGI [3] | TGI [4] | TGI [5] | TGI [6] | TGI [7] | TGI [8] | TGI [9] | TGI [10] | TGI [11] | TGI [12] | TGI [13] | TGI [14] | TGI [15] | TGI [54] | TGI [17] | TGI [18] | TGI [19] | TGI [20] | TGI [21] | TGI [22] | TGI [55] | TGI [23] | TGI [56] | TGI [24] | TGI [25] | TGI [26] | TGI [28] | TGI [29] | TGI [30] | TGI [31] | TGI [32] | TGI [33] | TGI [34] | TGI [35] | TGI [36] | TGI [37] | TGI [39] | TGI [57] | TGI [40] | TGI [41] | TGI [42] | TGI [43] | TGI [44] | TGI [45] | TGI [46] | TGI [47] | TGI [49] | TGI [50] | TGI [51] | TGI [52]
